Laboratory results: ChEMBL document CHEMBL5634182, “Antifungal Pseuboyenes A-J, Bergamotene-Derived Sesquiterpenoids from a Cold-Seep-Derived Pseudallescheria boydii” (J Nat Prod, 2024)

Experiments:
Format in all cases: functional
Escherichia coli = assay: Antibacterial activity against Escherichia coli EMBLC-1 assessed as reduction in microbial growth by broth microdilution method
Edwardsiella tarda = assay: Antibacterial activity against Edwardsiella tarda QDIO-2 assessed as reduction in microbial growth by broth microdilution method
Micrococcus luteus = assay: Antibacterial activity against Micrococcus luteus QDIO-3 assessed as reduction in microbial growth by broth microdilution method
Pseudomonas aeruginosa = assay: Antibacterial activity against Pseudomonas aeruginosa QDIO-4 assessed as reduction in microbial growth by broth microdilution method
Vibrio anguillarum = assay: Antibacterial activity against Vibrio anguillarum QDIO-6 assessed as reduction in microbial growth by broth microdilution method
Vibrio harveyi = assay: Antibacterial activity against Vibrio harveyi QDIO-7 assessed as reduction in microbial growth by broth microdilution method
Vibrio vulnificus = assay: Antibacterial activity against Vibrio vulnificus QDIO-10 assessed as reduction in microbial growth by broth microdilution method
Alternaria brassicae = assay: Antifungal activity against Alternaria brassicae QDAU-16 assessed as reduction in microbial growth by broth microdilution method
[1] = system: Ceratobasidium cornigerum; assay: Antifungal activity against Ceratobasidium cornigerum QDAU-6 assessed as reduction in microbial growth by broth microdilution method
Coniella diplodiella = assay: Antifungal activity against Coniothyrium diplodiella QDAU-7 assessed as reduction in microbial growth by broth microdilution method
[2] = system: Colletotrichum gloeosporioides; assay: Antifungal activity against Colletotrichum gloeosporioides QDAU-2 assessed as reduction in microbial growth by broth microdilution method
[3] = system: Colletotrichum gloeosporioides; assay: Antifungal activity against Colletotrichum gloeosporioides QDAU-17 assessed as reduction in microbial growth by broth microdilution method
Curvularia spicifera = assay: Antifungal activity against Curvularia spicifera QDAU-18 assessed as reduction in microbial growth by broth microdilution method
Fusarium graminearum = assay: Antifungal activity against Fusarium graminearum QDAU-4 assessed as reduction in microbial growth by broth microdilution method
Fusarium oxysporum = assay: Antifungal activity against Fusarium oxysporum QDAU-8 assessed as reduction in microbial growth by broth microdilution method
Fusarium proliferatum = assay: Antifungal activity against Fusarium proliferatum QDAU-19 assessed as reduction in microbial growth by broth microdilution method
Penicillium digitatum = assay: Antifungal activity against Penicillium digitatum QDAU-14 assessed as reduction in microbial growth by broth microdilution method
[4] = system: Botryosphaeria berengeriana; assay: Antifungal activity against Physalospora piricola QDAU-15 assessed as reduction in microbial growth by broth microdilution method

Structure (SMILES)	MIC (Escherichia coli) [µg/mL]	MIC (Edwardsiella tarda) [µg/mL]	MIC (Micrococcus luteus) [µg/mL]	MIC (Pseudomonas aeruginosa) [µg/mL]	MIC (Vibrio anguillarum) [µg/mL]	MIC (Vibrio harveyi) [µg/mL]	MIC (Vibrio vulnificus) [µg/mL]	MIC (Alternaria brassicae) [µg/mL]	MIC [1] [µg/mL]	MIC (Coniella diplodiella) [µg/mL]	MIC [2] [µg/mL]	MIC [3] [µg/mL]	MIC (Curvularia spicifera) [µg/mL]	MIC (Fusarium graminearum) [µg/mL]	MIC (Fusarium oxysporum) [µg/mL]	MIC (Fusarium proliferatum) [µg/mL]	MIC (Penicillium digitatum) [µg/mL]	MIC [4] [µg/mL]
C=C1CC[C@H](O)C[C@@H]1[C@H](C)[C@H](O)C(=O)C=C(C)C	> 64	> 64	> 64	> 64	64	> 64	2											
C=C1CC[C@@]2(O)C[C@@H]1[C@]2(C)CC(=O)C=C(C)C	> 64	> 64	16	32	> 64	16	8	1	4	4	8	8	2	4	8	8	4	16
C=C1CC[C@@]2(O)C[C@@H]1[C@]2(C)[C@H](OC(C)=O)C(=O)C=C(C)C								4	8	4	4	16	1	2	16	2	8	32
O=C(N[C@H](CO)[C@H](O)c1ccc([N+](=O)[O-])cc1)C(Cl)Cl [CHLORAMPHENICOL]	0.5	2	0.5	2	0.5	0.5	2											
C=C1CC[C@@]2(C[C@@H](O)C(=O)OC)C[C@@H]1[C@](C)([C@H](O)CC=C(C)C)O2	> 64	> 64	> 64	> 64	16	> 64	64	8	64	4	4	64	4	4	16	4	8	64
C=C1CC[C@H](O)C[C@@H]1[C@@](C)(O)C(=O)/C=C/C(C)(C)O	> 64	16	> 64	> 64	> 64	> 64	64											
